The text below walks through data of US20240358777A1, “COMPOSITIONS COMPRISING BACILLUS AMYLOLIQUEFACIENS FOR PREVENTING AND TREATING ULCERATIVE COLITIS” (Artugen Therapeutics Ltd., priority 2021, published 2024).

For test [1], the system named is ART24. As to the kind of experiment: Antibiotic susceptibility of ART24, MIC, VetMIC Lact-1 & Lact-2 panels (Table 6). It counts as cell-based, Bacillus amyloliquefaciens. The settings on record: 24 hr at 37° C.; average results from N = 6. On the procedure:
The minimum inhibitory concentration (MIC) of the listed antimicrobials is expressed as μg/mL. […] From this suspension 46 μL was transferred in to 23 mL of 90% Iso-Sensitest Broth (CM0473, Oxoid) containing 10% BHI broth to end with a final inoculum concentration of 5×10^5 CFU/mL. The wells of the prefabricated 96-well plates were filled with 100 μL of the final suspension. The plates were sealed with an […], Sigma Aldrich) sealing film (to facilitate growth of the […] strains. The plates were then incubated for 24 hr at 37° C. The results are recorded after 24 hours as the lowest concentration of the antibiotic to inhibit visible growth. The prefabricated panels […], Uppsala, Sweden) comprising the antibiotics ampicillin, vancomycin, gentamicin, kanamycin, streptomycin, erythromycin, clindamycin, tetracycline, chloramphenicol, neomycin, penicillin, quinupristin-dalfopristin, linezolid, trimethoprim, ciprofloxacin and rifampicin were used.

Test [2] concerns ART24. As to the kind of experiment: Additional EFSA-recommended MIC studies on ART24 lots and cell banks (Table 7). The format is cell-based, Bacillus amyloliquefaciens. The method, then: The minimum inhibitory concentration (MIC) of the listed antimicrobials is expressed as μg/mL. Additional studies following EFSA testing recommendations were performed on lyophilized ART24 lots CO-33-10A2 and CO-33-12A2 and Research and Master Cell Banks CO-33-ART24 BHI and CO-33-ART24 SYD, and those results are shown in Table 7.

With Gentamicin, the “ART24 MIC” value in test [1] was at most 0.5 µg/mL. Further, the MIC interpretation result in test [2] (source CO-33-10A2), in test [2] (source CO-33-12A2), in test [2] (source CO-33 ART 24 BHI) and in test [2] (source CO-33 ART 024 SYD) was “(S)” in each case. The MIC in test [2] (source CO-33-10A2 (lyophilized lot)), in test [2] (source CO-33-12A2 (lyophilized lot)), in test [2] (source CO-33 ART 24 BHI) and in test [2] (source CO-33 ART 024 SYD) was at most 0.06 µg/mL throughout.
